Experimental data published in patent US20030083483A1, “Molecular interaction sites of vimentin RNA and methods of modulating the same” (priority 1999, published 2003).
≈ marks a conversion by molar mass, not a printed value.

Key:
[1] = general statement; cited from earlier work
[2] = general statement; cited from earlier work; remark: listed apart in the source
[3] = tested on: TAR RNA interaction with tat peptide; assay: disruption of TAR RNA interaction with tat peptide; assay type: binding, HIV-1
[4] = target: luciferase mRNA containing the TAR RNA structure in the 5′-UTR; assay: wheat germ lysate translation of luciferase mRNA with TAR in the 5′-UTR; assay type: biochemical, HIV; conditions: read-out: concentration reducing translation by 50%
Source text: It is believed that stabilization of mRNA structures near the 5′-cap also could be effected by specific “small” molecules, and that such binding would reduce the translational efficiency of the mRNA. To test this hypothesis, a plasmid was constructed containing the luciferase message behind a 5′-UTR containing a 27-mer RNA construct of the HIV TAR stem-loop bulge whose structure had been determined by NMR. The resulting mRNA could be expressed and capped in a wheat germ lysate translation system supplemented with T7 polymerase following addition of m^7G to the lysate. Insertion of a 9-base leader before the TAR structure (HIVluc+9) enhanced the translational efficiency, presumably by allowing the pre-initiation complex to form. The helicase activity associated with the pre-initiation complex can transiently melt out the TAR RNA structure, and the message is translated.

luciferase mRNA = assay: wheat germ lysate translation of luciferase mRNA; assay type: biochemical; conditions: mRNA without TAR structure
Source text: It is believed that stabilization of mRNA structures near the 5′-cap also could be effected by specific “small” molecules, and that such binding would reduce the translational efficiency of the mRNA. To test this hypothesis, a plasmid was constructed containing the luciferase message behind a 5′-UTR containing a 27-mer RNA construct of the HIV TAR stem-loop bulge whose structure had been determined by NMR.

[5] = target: 27-mer model RNA sequence of the 16S A-site; assay: MASS mass spectrometry binding assay with 16S A-site 27-mer RNA; parameters: species or system prokaryotic; conditions: for complexes detected with the 16S A site 27mer RNA: ESI-FTICR, mixture of five aminoglycosides, 16S and 18S targets simultaneously
Experimental: The compounds are screened for binding affinity using MASS or conventional high-throughput functional screens. The best scoring compounds from docking a 256-member library against the 16S A-site ribosomal RNA structure are shown in the table 5 below. The MASS assay was performed with the 27-mer model RNA sequence of the 16S A-site whose NMR structure has been determined. The transcription/translation assay was based on expression of a luciferase plasmid.
A preferred first step of MASS screening involves mixing the RNA target (or targets) with a combinatorial library of ligands designed to bind to a specific site on the target molecule(s). Specific noncovalent complexes formed in solution between the target(s) and any library members are transferred into the gas phase and ionized by ESI. As described herein, from the measured mass difference between the complex and the free target, the identity of the binding ligand can be determined. The dissociation constant of the complex can be determined in two ways: if a ligand with a known binding affinity for the target is available, a relative Kd can be measured by using the known ligand as an internal control and measuring the abundance of the unknown complex to the abundance of the control, alternatively, if no internal control is available, Kd's can be determined by making a series of measurements at different ligand concentrations and deriving a Kd value from the “titration” curve.
In a direct determination of solution phase dissociation constants (Kd's) by mass spectrometry, ESI-MS measurements of a solution containing a fixed concentration of RNA at different concentrations of ligand were obtained. By measuring the ratio of bound:unbound RNA at varying ligand concentrations, the Kd was determined by 1/slope of the “titration curve”. The MS derived value of 110 nM is in good agreement with previously reported literature value of 200 nM.
All mass spectrometry experiments were performed using an Apex II 70e electrospray ionization Fourier transform ion cyclotron resonance mass spectrometer (Bruker Daltonics, Billerica) employing an actively shielded 7 tesla superconducting magnet. RNA solutions were prepared in 50 mM NH4OAc (pH 7), mixed 1:1 v:v with isopropanol to aid desolvation, and infused at a rate of […] using a syringe pump. Ions were formed in a modified electrospray source (Analytica, Branford) employing an off axis, grounded electrospray probe positioned ca. 1.5 cm from the metalized terminus of the glass desolvation capillary biased at 5000 V. A counter-current flow of dry […] gas heated to 225C was employed to assist in the desolvation process. Ions were accumulated in an external ion reservoir comprised of an RF-only hexapole, a skimmer cone, and an auxiliary electrode for 1000 ms prior to transfer into the trapped ion cell for mass analysis. Each spectrum was the result of the coaddition of 16 transients comprised of […] acquired over a 90,909 kHz bandwidth resulting in a 700 ms detection interval. All aspects of pulse sequence control, data acquisition, and post acquisition processing were performed using a Bruker Daltonics datastation running XMASS version 4.0 on a Silicon Graphics (San Jose, Calif.) R5000 computer.
Mass spectrometry experiments were performed in order to detect complex formation between a library containing five aminoglycosides (Sisomicin (Sis), Tobramycin (Tob), Bekanomycin (Bek), Paromomycin (PM), and Livodomycin (LV)) and two RNA targets simultaneously. Signals from the (M-5H+)^5− charge states of free 16S and 18S RNAs are detected at m/z 1801.515 and 1868.338, respectively. The mass spectrometric assay reproduces the known solution binding properties of aminoglycosides to the 16S A site model and an 18S A site model with a neutral mass linker. Consistent with the higher binding affinity of theses aminoglycosides for the 16S A-site relative to the 18S A-site, aminoglycoside complexes are observed only with the 16S rRNA target. […]

18S A site model = assay: ESI-FTICR mass spectrometric complex detection with 18S A-site model RNA; assay type: binding, eukaryotic; conditions: mixture of five aminoglycosides, 16S and 18S targets simultaneously
Experimental: Paromomycin, lividomycin (MW=761.354 Da), sisomicin (MW=447.269 Da), tobramycin (MW=467.2591 Da), and bekanamycin (MW=483.254 Da) were obtained from Sigma (St. Louis, Mo.) and ICN (Costa Mesa, Calif.) and were dissolved to generate 10 mM stock solutions. 2′ methoxy analogs of RNA constructs representing the prokaryotic (16S) rRNA and eukaryotic (18S) rRNA A-site were synthesized in house and precipitated twice from 1 M ammonium acetate following deprotection with ammonia (pH 8.5). The mass-tagged constructs contained an 18-atom mass tag (C12H2509) attached to the 5′-terminus of the RNA oligomer through a phosphodiester linkage.
All mass spectrometry experiments were performed using an Apex II 70e electrospray ionization Fourier transform ion cyclotron resonance mass spectrometer (Bruker Daltonics, Billerica) employing an actively shielded 7 tesla superconducting magnet. […]
Mass spectrometry experiments were performed in order to detect complex formation between a library containing five aminoglycosides (Sisomicin (Sis), Tobramycin (Tob), Bekanomycin (Bek), Paromomycin (PM), and Livodomycin (LV)) and two RNA targets simultaneously. Signals from the (M-5H+)^5− charge states of free 16S and 18S RNAs are detected at m/z 1801.515 and 1868.338, respectively. […]

E. coli = assay: high throughput screening assay for antibacterial activity; assay type: cell-based; conditions: Escherichia coli; against E. coli; crude compounds, identical activity with analytically pure material; read-out: minimum inhibitory concentrations (MIC's)
Source text: This activity was verified by manual solution synthesis of analytically pure material as described in Example 6 above, which had identical activity.

Structure (SMILES): C=C(NC(=O)C(=C)NC(=O)c1csc(C2=N[C@@H]3c4csc(n4)[C@H]4NC(=O)c5csc(n5)[C@H]([C@](C)(O)[C@@H](C)O)NC(=O)[C@H]5CSC(=N5)/C(=C/C)NC(=O)[C@H]([C@@H](C)O)NC(=O)c5csc(n5)[C@]3(CC2)NC(=O)[C@H](C)NC(=O)C(=C)NC(=O)[C@H](C)NC(=O)[C@H]([C@@H](C)CC)N[C@@H]2C=Cc3c([C@H](C)O)cc(nc3[C@H]2O)C(=O)O[C@@H]4C)n1)C(N)=O [thiostrepton]
- solubility [1]: very poor
- toxicity [2]: relatively high

Structure (SMILES): CNc1ccc(NCCO)c2c1C(=O)c1ccccc1C2=O [ACD 00001199]
- concentration at which binding to TAR RNA disrupts the interaction with tat peptide [3]: 1 µM
- IC50 values ([3]; in words, assay not stated, TAR ligands): low
- IC50 [4]: 50 µM
- inhibition of translation of the luciferase mRNA (luciferase mRNA): some inhibition of translation at very high concentrations

Structure (SMILES): NC[C@@H]1O[C@H](O[C@H]2[C@@H](O)[C@H](O[C@@H]3[C@@H](O)[C@H](N)C[C@H](N)[C@H]3O[C@H]3O[C@H](CO)[C@@H](O)C[C@H]3N)O[C@@H]2CO)[C@H](N)[C@@H](O)[C@@H]1O[C@H]1O[C@H](CO)[C@@H](O)[C@H](O)[C@@H]1O [lividomycin]
- Kd ([5]; 16S A site 27mer, ESI-MS titration, read-out: KD measured by mass spectrometry): 0.028 µM
- complexes detected with the 16S A site 27mer RNA [5]: High affinity complexes
- complexes with the 18S A site model (18S A site model): absence

Structure (SMILES): NC[C@H]1O[C@H](O[C@H]2[C@H](O)[C@@H](O[C@H]3O[C@H](CO)[C@@H](O)[C@H](N)[C@H]3O)[C@H](N)C[C@@H]2N)[C@H](N)C[C@@H]1O [tobramycin]
- complexes detected with the 16S A site 27mer RNA [5]: Weaker complexes

Structure (SMILES): NC[C@H]1O[C@H](O[C@H]2[C@H](O)[C@@H](O[C@H]3O[C@H](CO)[C@@H](O)[C@H](N)[C@H]3O)[C@H](N)C[C@@H]2N)[C@H](N)[C@@H](O)[C@@H]1O [bekamycin, bekanamycin]
- complexes detected with the 16S A site 27mer RNA [5]: Weaker complexes

Structure (SMILES): O=C(NO)[C@@H](Cc1ccc2ccccc2c1)NS(=O)(=O)c1ccc(Br)cc1 [Compound 5-n-vi, (2R)-2-(((4-bromophenyl)Sulfonyl)Amino)-3-(2-naphthyl)Propanehydroxamic Acid]
- MIC (E. coli): 3 to 6 µM (≈ 1.35 to 2.7 µg/mL)

Structure (SMILES): CN[C@@H]1[C@@H](O)[C@@H](O[C@@H]2[C@@H](O)[C@H](O[C@H]3OC(CN)=CC[C@H]3N)[C@@H](N)C[C@H]2N)OC[C@]1(C)O [sisomycin, sisomicin]
- complexes detected with the 16S A site 27mer RNA [5]: Weaker complexes

Structure (SMILES): O=C(NO)[C@@H](Cc1ccc2ccccc2c1)NS(=O)(=O)c1ccc2ccccc2c1 [Compound 5-n-ii, (2R)-3-(2-naphthyl)-2-((2-naphthylsulfonyl)Amino)Propanehydroxamic Acid]
- MIC (E. coli): 0.7 to 1.5 µM (≈ 0.294 to 0.631 µg/mL)
